Tests used:
non-muscle actin = experiment: F-actin co-sedimentation assay, non-muscle actin; type: binding
Procedure: Muscle actin, non-muscle actin, α-actinin and pyrene actin were purchased from Cytoskeleton, Inc. Actin was diluted to working concentrations in G buffer (2 mM Tris HCl, pH 8.0, 0.2 mM ATP, 0.1 mM CaCl2, 0.5 mM DTT).
Polymerization of actin was induced by addition of 0.1 volume 10×KMEI buffer (50 mM KCl, 1 mM MgCl2, 1 mM EGTA, 10 mM imidazole HCl, pH 7.0) and incubation for >1 h at room temperature (RT). […] The supernatant was removed and the pellet resuspended in 100 μl of 1×KMEI buffer. The amount of peptide was measured in a Cary Eclipse Fluorescence Spectrophotometer with excitation/emission set for FITC at 495 nm/520 nm. The bound/total ratio was calculated as the signal from the pellet divided by the total signal. The Kd was obtained by fitting to a hyperbolic curve.

F-actin in MDCK cells = experiment: Double staining of PFA fixed MDCK cells with Cy3-conjugated phalloidin; type: cell-based, canine; settings: TIRF microscopy
Excerpt: (§1) TIRE images were captured on an iMic-stand from Till photonics with an 1.45 NA 100× objective from Olympus. A 300 mW Argon laser and a 20 mW DPSS 561 nm laser were selected through an AOTF. A 2-axis scan head (Yanus II) was used to digitally adjust the TIRE angle. Images were collected with a cooled Imago QE CCD camera. Acquisition was controlled by the TILLvisION software package. Confocal images were collected on a standard Leica SP2 setup. Epifluorescence images were collected on a Zeiss axiovert 200M stand equipped with a climate control chamber from EMBL.

[1] = Solubility of peptide in PBS; type: physicochemical
[2] = test system: MDCK and mouse embryonic fibroblasts; experiment: Cytotoxicity, morphology and growth of transfected cells; type: cell-based; settings: transiently and stably transfected cells
Procedure: (§2) Mouse primary dendritic cells were generated from flushed bone marrow suspension as described previously^30. At day 8-10 cells were nucleofected using the primary mouse T cell kit and the Amaxa nucleoporator according to the manufacturers recommendations and immediately after transfection 200 ng/ml LPS were added over night and cells were subsequently sorted into GFP positive and negative fractions by using fluorescent activated cell sorting. MDCK cells and mouse embryonic Fibroblasts were grown according to standard procedures and transfected using lipofectamine.

[3] = test system: primary rat hippocampal neurons; experiment: Neuronal polarization of transfected hippocampal neurons; type: cell-based; settings: mock transfected cells 69±9%
Procedure: Primary hippocampal neurons were isolated from rat embryos as previously described. Briefly, hippocampi derived from E18 rats were dissected, trypsinized, and dissociated. Directly after dissociation, 5×10^5 hippocampal neurons were transfected by the Amaxa nucleofector system using 3 μg of highly purified plasmid DNA of pEGFP-Lifeact, pEGFP-actin or pEGFP-N2. The neurons were then immediately plated onto poly-L-lysine-coated glass coverslips in 6 cm petri dishes containing minimal essential medium (MEM) and 10% heat-inactivated horse serum. The cells were kept in 5% CO2 at 36.5° C. 6-12 hrs after plating the glass coverslips were then transferred into 6 cm petri dishes containing astrocytes in MEM and N2 supplements and kept in culture for 2DIV.
Neurons were categorized into three stages: neurons with a single axon, multiple axons or no axon. A neurite length >35 μm was used as threshold to define the axon. Developmental stages were observed by live cell microscopy as described.

[4] = test system: mouse embryonic fibroblasts; experiment: Lamellipodial retrograde actin flow in fibroblasts; type: cell-based; settings: transfected fibroblasts; indistinguishable from untransfected cells
Excerpt: as §1
All image processing steps were performed in Metamorph (Molecular Devices). For visualization purposes sequences were routinely processed by sequential application of a local background subtraction filter and a 3×3 gauss low pass filter. Color overlays and kymographs were created with the respective functions in Metamorph.
Mouse primary dendritic cells were generated from flushed bone marrow suspension as described previously^30. At day 8-10 cells were nucleofected using the primary mouse T cell kit and the Amaxa nucleoporator according to the manufacturers recommendations and immediately after transfection 200 ng/ml LPS were added over night and cells were subsequently sorted into GFP positive and negative fractions by using fluorescent activated cell sorting. […]

mouse dendritic cells = experiment: Chemotactic dendritic cell migration in 3-dimensional collagen matrix; type: cell-based; settings: CCL19 gradient
Procedure: as §2
PureCol™ gels containing mature dendritic cells were cast as described previously. Gels were overlayed with 50 μl of 0.6 μg/ml CCL19 (R&D Systems) in RPMI, 10% FCS and imaged on an inverted Axiovert 40 (Zeiss) microscopes, equipped with custom built climate chambers (5% CO2, 37° C., humidified). Under agarose dendritic cell migration was performed as described^31. Briefly, dendritic cells were added into wells punched into an agarose layer. Recombinant CCL19 was added into the adjacent well and, following the chemokine gradient, the cells entered the space between agarose and coverslip. Chemotaxing cells were subsequently imaged with TIRF microscopy.

Molecule: CC[C@H](C)[C@H](NC(=O)[C@H](CC(C)C)NC(=O)[C@H](CC(=O)O)NC(=O)[C@H](C)NC(=O)[C@@H](NC(=O)CNC(=O)[C@H](CCSC)NC(=S)Nc1ccc2c(c1)C(=O)OC21c2ccc(O)cc2Oc2cc(O)ccc21)C(C)C)C(=O)N[C@@H](CCCCN)C(=O)N[C@@H](CCCCN)C(=O)N[C@@H](Cc1ccccc1)C(=O)N[C@@H](CCC(=O)O)C(=O)N[C@@H](CO)C(=O)N[C@H](C(=O)N[C@@H](CO)C(=O)N[C@@H](CCCCN)C(=O)N[C@@H](CCC(=O)O)C(=O)N[C@@H](CCC(=O)O)C(=O)O)[C@@H](C)CC [F-Lifeact]
- Kd (non-muscle actin): 5.4 ± 2.6 µM
- overlap with phalloidin staining (F-actin in MDCK cells): nearly complete overlap

Molecule: CC[C@H](C)[C@H](NC(=O)[C@H](CC(C)C)NC(=O)[C@H](CC(=O)O)NC(=O)[C@H](C)NC(=O)[C@@H](NC(=O)CNC(=O)[C@@H](N)CCSC)C(C)C)C(=O)N[C@@H](CCCCN)C(=O)N[C@@H](CCCCN)C(=O)N[C@@H](Cc1ccccc1)C(=O)N[C@@H](CCC(=O)O)C(=O)N[C@@H](CO)C(=O)N[C@H](C(=O)N[C@@H](CO)C(=O)N[C@@H](CCCCN)C(=O)N[C@@H](CCC(=O)O)C(=O)N[C@@H](CCC(=O)O)C(=O)O)[C@@H](C)CC [Lifeact]
- solubility in PBS [1]: not soluble in PBS

Molecule: Lifeact-G: Lifeact-GFP fusion expressed from pEGFP-N1 backbone under the CMV promoter
- signs of cytotoxicity [2]: no signs of cytotoxicity
- cells formed one axon [3]: 60.1±0.2%
- speed of retrograde flow in lamellipodia [4]: 4 μm/min
- effect on speed of chemotactic dendritic cell migration (mouse dendritic cells): no effect
